Source: patent publication US20090104637A1, “Method and Apparatus for Assaying Blood Clotting” (priority 2006, published 2009)
Marks after values point to notes of the source that are not given here.

Key:
[1] = cited from earlier work
[2] = tested on: normal pooled plasma and donor plasma; test: On-chip APTT assay with argatroban titration, plug-based microfluidic device, plasma, 37° C.; type: biochemical, human
donor's whole blood = test: On-chip APTT assay with argatroban titration, plug-based microfluidic device, whole blood, 23° C.; type: biochemical, human; conditions: APTT with argatroban / baseline APTT
human α-thrombin = target: T1, human α-thrombin (Homo sapiens, UniProt P00734); conditions: 37° C., 50 mM Tris-HCl, pH 8.0, 0.15 M NaCl, 1 mM CaCl2, 1 mg/mL BSA; cited from earlier work
T1 construct: A fluorogenic substrate for human α-thrombin

[3] = tested on: activated protein C (aPC); test: Activated protein C (aPC) production from Egg PC lipid coated surfaces with reconstituted thrombomodulin; type: biochemical
Source text: It has been proposed that clot propagation is regulated by thrombomodulin (TM), an inhibitor of clotting located at on the walls of vessels near sites of vascular damage. It has been shown that clot propagation is reduced when TM is homogenously mixed into blood plasma. To mimic the localization of TM on vessel walls, TM was incorporated at the channel walls and tested if this TM was sufficient to stop clot propagation. The inventors incorporated TM into the inert phospholipid surface by forming inert lipid vesicles with reconstituted TM (lipid:TM) and by using the procedure described above to coat the channel walls.
Control experiments verified TM activity on the channel walls was on the same order of magnitude as previously measured for a monolayer of endothelial cells. Measured TM activities are shown in Table 2, which illustrates the quantification of activated protein C (aPC) production from Egg PC lipid coated surfaces with reconstituted thrombomodulin (TM). Corresponding velocities of clot propagation are shown.

human blood plasma = test: Velocity of clot propagation in a microfluidic channel in the absence of flow; type: biochemical
Source text: To test the prediction that clots propagate as a reactive front with a constant velocity, the inventors used a microfluidic system to regulate and observe clotting in human blood plasma. This system was fabricated in poly(dimethylsiloxane) (PDMS).
FIG. 22 illustrates measurement of the propagation of a blood clot through a microfluidic channel in the absence of flow. Clots propagate with a similar velocity, Fv, in the absence and presence of a membrane-bound inhibitor of clotting, thrombomodulin (TM), on the channel wall. FIG. 22a is a schematic drawing of the procedure for initiating and monitoring clot propagation in a microfluidic device. […] FIG. 22b is a fluorescence microphotograph of a microfluidic device showing that lipids with reconstituted TF (lipid-TF) can be localized to a specific section of a channel in a background of inert lipids. FIG. 22c is a time-lapse fluorescence microphotographs showing position of the clot at 0, 40, and 80 min after plasma was introduced into the channel.
Clot initiation and propagation were spatially separated by patterning the walls of the same channel with different phospholipids (FIG. 22a). […] Clotting was monitored using bright-field microscopy to detect fibrin formation and fluorescence microscopy to detect thrombin-induced cleavage of a peptide-modified coumarin dye. […]

[4] = tested on: normal pooled plasma (NPP); test: Initiation of clotting on patches of TF-reconstituted bilayers (timescale of reaction, threshold patch size); type: biochemical, human
Protocol: Reconstituting tissue factor (TF) to obtain clot-promoting vesicles. TF was reconstituted into mixed vesicles of DLPC/PS/Texas Reds DHPE (79.5/20/0.5 mole percents) at a concentration of 1.25 mg/mL in 1×HEPES-buffered saline/Ca^2+ buffer. For experiments in FIGS. 17, 18, and 19 the TF concentration in the vesicle solution was 0.40 nM (TF:lipid ratio of 2.5×10^−7). Assuming that all the TF was incorporated into the vesicles, the calculated surface concentration would be 0.08 fmol/cm^2. For experiments in Table 1, a final concentration of 0.16 nM of TF (TF:lipid ratio of 1×10^−7) was used. After addition of TF to the vesicle solution, the solution was incubated at 37° C. for 30 min and then stored at 12° C. The vesicles were used within 18 hrs.
Generating patches by backfilling clot-promoting lipids into the photo-removed regions of bilayer. To generate the clot-promoting patches, the patterned bilayers were backfilled with 30 μL of the TF-reconstituted vesicle solution (1.25 mg/mL vesicles in PBS buffer) and allowed to incubate for 4 min at room temperature. Phospholipid bilayers containing active TF have been prepared previously (Contino et al., 1994, Biophys. J. 67: 1113-1116 (1994)). Excess vesicles were removed by vigorous rinsing with a solution of NaCl (150 mM). Patterned bilayers were used immediately in clotting experiments.
Recalcifying the blood plasma samples and adding the thrombi-sensitive dye. All blood plasma samples were recalcified by adding a solution of CaCl2 containing the thrombin-sensitive fluorescent dye, Boc-Asp(OBzl)-Pro-Arg-MCA, (CaCl2, 40 mM; NaCl, 90 mM; and Boc-Asp(OBzl)-Pro-Arg-MCA, 0.4 mM). At the start of each experiment, the plasma and the solution containing CaCl2 were mixed 3:1 by volume. Clotting was detected by the appearance of fibrin using bright field microscopy, and by the appearance of fluorescence signal generated when 4-Methyl-Coumaryl-7-Amine (MCA) was cleaved from Boc-Asp(OBzl)-Pro-Arg-MCA by thrombin.
Inhibiting the factor XII pathway with corn trypsin inhibitor. For experiments measuring clot times for the TF pathway (all experiments using phospholipid bilayers and reconstituted TF), the factor XII (contact) pathway was inhibited with corn trypsin inhibitor (CTI). […]
The threshold patch size of donor platelet rich plasma and normal pooled plasma was measured at 24° C. and 37° C. Clot times were measured on patches presenting clotting stimuli (TF-reconstituted bilayers) in arrays containing patches of different sizes (Table 1). In a single experiment, the clot time on seven different patch sizes was measured. […] Clot time vs. patch size for platelet rich plasma (PRP) from donors was measured.

In the case of `O=Nc1ccccc1C(=O)O` [2-nitrosobenzoic acid], the pKa [1] is listed as less than 4.

In the case of `CC1CNc2c(cccc2S(=O)(=O)N[C@@H](CCCNC(=N)N)C(=O)N2CC[C@@H](C)C[C@@H]2C(=O)O)C1` (some centres unmarked) [argatroban], the APTT ratio ([2]; argatroban 0.5 μg/mL) is reported as “about 2.1”, the APTT ratio ([2]; argatroban 1.0 μg/mL) is reported as 2.7 and the APTT ratio (donor's whole blood; argatroban 0.5 μg/mL) is reported as 2.3. The APTT ratio (donor's whole blood; argatroban 1.0 μg/mL) was 2.8.

In the case of “t-butyloxycarbonyl-β-benzyl-L-aspartyl-L-prolyl-Larginine-4-methyl-coumaryl-7-amide”, the Km (human α-thrombin) is given as 11 µM and the kcat (human α-thrombin) is given as 160 s⁻¹.

For thrombomodulin [TM], the aPC production ([3]; Glass, 37 ° C., TM:Egg PC ratio 1:7560) was 10 pmol min^−1 m^−2, the aPC production ([3]; Glass, 37 ° C., TM:Egg PC ratio 1:75600) was 0.3 pmol min^−1 m^−2 and the aPC production ([3]; PDMS, 25 ° C., TM:Egg PC ratio 1:7560) was 5* pmol min^−1 m^−2. The aPC production ([3]; PDMS, 25 ° C., TM:Egg PC ratio 1:75600) was 10 pmol min^−1 m^−2, the “Front Velocity” value (human blood plasma; Glass, 37 ° C., TM:Egg PC ratio 1:7560, 41 without TM) was 50 μm min^−1 and the “Front Velocity (Fv)” value (human blood plasma; PDMS, 25 ° C., TM:Egg PC ratio 1:75600 (lipid:TM=7.6×10^4), 20 without TM) was 24 μm min^−1.

B1: tissue factor (protein, UniProt P13726 33-295, looked up)
Tissue factor: SGTTNTVAAYNLTWKSTNFKTILEWEPKPVNQVYTVQISTKSGDWKSKCFYTTDTECDLTDEIVKDVKQTYLARVFSYPAGNVESTGSAGEPLYENSPEFTPYLETNLGQPTIQSFEQVGTKVNVTVEDERTLVRRNNTFLSLRDVFGKDLIYTLYYWKSSSSGKKTAKTNTNEFLIDVDKGENYCFSVQAVIPSRTVNRKSTDSPVECMGQEKGEFREIFYIIGAVVFVVIILVIILAISLHKCRKAGVGQSWKENSPLNVS
modifications: in phospholipid bilayers
notes: human recombinant tissue factor reconstituted in phospholipid bilayers, clotting stimulus
For B1, the “threshold patch size, ptr” value ([4]; [TF]=0.16 nM in vesicles) was 160±32 μm, the “timescale of reaction, tR” value ([4]; [TF]=0.16 nM in vesicles) was 206 s and the “threshold patch size, ptr” value ([4]; [TF]=0.40 nM in vesicles) was 75±25 μm. For the same molecule, the “timescale of reaction, tR” value ([4]; [TF]=0.40 nM in vesicles) was 30 s.
